We go through one compound from patent EP4800015A1, “AZABICYCLO DERIVATIVE AND PREPARATION METHOD THEREFOR, AND USE” (Zhejiang Hisun Pharmaceutical Co., Ltd., priority 2023, dated 2025).

Structures are written as SMILES. pIC50: −log10 of the molar value.

The subject of one series is RL95-2 cells. As to the kind of experiment: Inhibition of RL95-2 cell proliferation (CellTiter-Glo). The series is classed as cell-based. The settings on record: Homo sapiens; RL95-2 cells (MSI-H), 120 hours. A digest of the protocol:
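Proliferation IC50 derived by nonlinear regression of % inhibition against log concentration, with 0.1% DMSO wells as reference. CellTiter-Glo luminescence was read after 120 h of compound exposure (10000 nM down to 1.52 nM final) at 37 °C. MSI-H RL95-2 cells seeded at 500/well in DMEM/F12 with 10% FBS the day before.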
For orientation: ATP-based viability assays read luminescence as a measure of living cells.

A short description of series [1]: Caco-2 bidirectional permeability and efflux ratio. The settings on record: human, Caco-2, 10 µM, 120 minutes. The series is classed as in vitro ADME. As for the experimental part:
(§1) The bidirectional permeability and efflux ratio of the example compounds and control compound were determined in a Caco-2 monolayer cell model.
(§2) Caco-2 cells (cultured at Shanghai Medicilon Inc.) were recovered in the experiment. After the cells were in good condition, they were digested, and the cell density was adjusted (1 × 10^5 cells/cm^2). Caco-2 cells were seeded into Transwell chambers and placed in 24-well plates for cultivation. After continuous cultivation for about 21 days, TEER values were measured one day before the experiment to ensure formation of a confluent cell monolayer for transport experiments (TEER > 200 Ω·cm^2). Test compounds were diluted from 10 mM stock solutions to 10 µM concentration using transport buffer (HBSS containing BSA) (metoprolol and atenolol were set as positive compounds). For efflux determination, 0.6 mL of compound dilution solution was added to the outer well (side B), and 0.4 mL of blank transport buffer was added to the Transwell chamber. For absorption determination, 0.4 mL of transport buffer containing compound was added to the Transwell chamber, and 0.6 mL of blank transport buffer was added to the outer side. After setup, the 24-well plates were cultivated at 37 °C and 5% CO2 with 95% relative humidity for 120 minutes, and permeability of test compounds from A to B direction or B to A direction was measured, respectively, with two duplicate wells set for each direction. Liquid in Transwell chambers and 24-well plates was collected separately, 60 µL each, and 180 µL of acetonitrile (containing internal standard) was added, vortexed for 1 min, then centrifuged at 4 °C, 10000 rpm for 10 min. The supernatant was taken, filtered through a 0.22 µm membrane, and placed in vials for testing. The content of the compounds in each Transwell chamber and 24-well plate was determined by liquid chromatography-tandem mass spectrometry (LC-MS/MS). Table 4 Permeability data of compounds of the present disclosure
In general terms: Passage across Caco-2 layers is used to estimate intestinal permeability.

Series [2] relates to Caco-2 monolayer cell model. As to the kind of experiment: Caco-2 bidirectional permeability and efflux ratio. The series is classed as in vitro ADME. The note with it: Caco-2, conclusion. As for the experimental part: as §1, §2
Series [3] can be described thus: Pharmacokinetic test in mice after intragastric administration. The series is classed as in vivo. The note with it: male, mouse, plasma, ICR mice, Oral (10 mg/kg). As for the experimental part: ICR mice were used as test animals, the plasma concentrations of the control compound HRO761 and the compounds of the present disclosure at different time points after intragastric administration were determined by LC/MS/MS method, and the pharmacokinetic characteristics of the compounds of the present disclosure in mice were studied.
ICR mice, male, 30.8 to 38.0 g, purchased from Vital River Laboratory Animal Technology Co., Ltd.
An appropriate amount of the test compound was weighed, and an appropriate amount of DMA (N,N-dimethylacetamide), 30% Solutol HS15 (30% polyethylene glycol-15 hydroxystearate), and Saline (saline) were added sequentially, the mixture was ultrasonicated and vortex mixed to prepare a 1 mg/mL dosing formulation. The ratio of DMA:30% Solutol HS15:Saline was 5:5:90 (v/v/v).
After overnight fasting, ICR mice in each test compound injection group (9 mice per group) were administered intragastrically (PO, compound dose was 10 mg/kg, administration volume was 10 mL/kg), and food was given 4 hours after administration.
About 0.1 mL of blood was collected via the orbital cavity before administration and at 0.25 h, 0.5 h, 1 h, 2 h, 4 h, 8 h, 10 h, and 24 h after administration, and whole blood samples were placed in anticoagulant tubes containing EDTA-K2. The samples were placed on ice after collection, and plasma was separated by centrifugation (centrifugation conditions: 1500 g, 10 minutes). The collected plasma was stored at -40 to -20 °C before analysis.
The content of the test compound in mouse plasma after intragastric administration was determined by LC-MS/MS.

With `CCc1c(N2CCN(C(=O)c3ncnc(C)c3O)CC2)c(=O)n2nc(-c3cc4ccccc4s3)nc2n1CC(=O)Nc1ccc(C(F)(F)F)cc1Cl` [Example 80, 2-(2-(benzo[b]thiophen-2-yl)-5-ethyl-6-(4-(5-hydroxy-6-methylpyrimidine-4-carbonyl)piperazin-1-yl)-7-oxo-[1,2,4]triazolo[1,5-a]pyrimidin-4(7H)-yl)-N-(2-chloro-4-(trifluoromethyl)phenyl)acet amide], in the series with RL95-2 cells, the pIC50 (in general, the negative decadic logarithm of the IC50, by convention in mol/L) was 7.00 to 9.00. The efflux ratio at 120 min, 10 µM in series [1] (read-out: Efflux ratio Papp(B-A)/ Papp(A-B)) was 0.62. The Papp A→B (as a rule, the apparent permeability from the apical to the basolateral side of a cell layer) at 120 min, 10 µM in series [1] (A to B) stood at 3.67 ×10⁻⁶ cm/s. Also, in series [1] (B to A), the Papp B→A (commonly the apparent permeability from the basolateral to the apical side of a cell layer) at 120 min, 10 µM is 2.29 ×10⁻⁶ cm/s. Moreover, in series [2], the “efflux (in words)” value is recorded as “no significant efflux” and the “permeability (in words)” value is listed as “moderate permeability”. The AUC(0-t) in series [3] (read-out: Area under curve AUC0-t) was found to be 104 µg·h/mL. The half-life in series [3] (read-out: Half-life T1/2 (converted)) is 2.11 h. Also, the Cmax in series [3] (read-out: Plasma concentration Cmax) came out at 19800 ng/mL.
